# Assay results published in patent US12336980B2, “Dosing regimen for a selective S1P1 receptor agonist” (Vanda Pharmaceuticals Inc., priority 2014, dated 2025).
# Assays:
# [1] = Plasma concentrations of ponesimod by LC-MS/MS; format: in vivo, human
# Description: The enrolled subjects came to the study center for each treatment period on Day −2 and participated in a run-in (all study procedures performed without study drug administration) on Day −1. On Day 1, subjects were randomized to one of the two possible sequences of the two up-titration regimens A and B (ratio 1:1). On Day 1, all subjects received placebo; the first study drug administration (or its matching placebo) occurred on Day 2. Regimen A consisted of the novel up-titration regimen: ponesimod was administered once daily (o.d.) orally at a dose of 2 mg on Day 2 and Day 3, 3 mg on Day 4 and Day 5, 4 mg on Day 6 and Day 7, 5 mg on Day 8, 6 mg on Day 9, 7 mg on Day 10, 8 mg on Day 11, 9 mg on Day 12, 10 mg on Day 13 and Day 14, and 20 mg on Day 15. The reference regimen (regimen B) was based on previous studies (Olsson T. et al., Oral ponesimod in relapsing-remitting multiple sclerosis: a randomised phase II trial. J Neurol Neurosurg Psychiatry. 2014; 85 (11): 1198-1208; and Vaclavkova A. et al., Oral ponesimod in patients with chronic plaque psoriasis: a randomised, double-blind, placebo-controlled phase 2 trial. Lancet. 2014; 384 (9959): 2036-2045) and consisted of an o.d. oral administration of ponesimod at a dose of 10 mg for 7 days (i.e., from Day 2 to Day 8) and 20 mg on Day 9. From Day 10 to Day 15 subjects received o.d. the matching placebo. In the placebo group (1:1 sex ratio), subjects received placebo from Day 1 to Day 15. […]
# Blood samples of about 3 mL were collected in ethylene di-amine tetra acetic acid tubes at pre-dose and 3 h after study drug administration from Day 1 to Day 15 in each treatment period. […] Plasma concentrations of ponesimod were determined using a validated liquid chromatography coupled to tandem mass spectrometry assay with a lower limit of quantification of 1 ng/mL (Brossard P. et al., Pharmacokinetics and pharmacodynamics of ponesimod, a selective S1 P1 receptor modulator, in the first-in-human study. British journal of clinical pharmacology. 2013; 76 (6): 888-896). […]
# healthy subjects = experiment: Vital signs, supine blood pressure; format: in vivo, human; details: first administration, mean±SD
# Description: The enrolled subjects came to the study center for each treatment period on Day −2 and participated in a run-in (all study procedures performed without study drug administration) on Day −1. On Day 1, subjects were randomized to one of the two possible sequences of the two up-titration regimens A and B (ratio 1:1). On Day 1, all subjects received placebo; the first study drug administration (or its matching placebo) occurred on Day 2. Regimen A consisted of the novel up-titration regimen: ponesimod was administered once daily (o.d.) orally at a dose of 2 mg on Day 2 and Day 3, 3 mg on Day 4 and Day 5, 4 mg on Day 6 and Day 7, 5 mg on Day 8, 6 mg on Day 9, 7 mg on Day 10, 8 mg on Day 11, 9 mg on Day 12, 10 mg on Day 13 and Day 14, and 20 mg on Day 15. The reference regimen (regimen B) was based on previous studies (Olsson T. et al., Oral ponesimod in relapsing-remitting multiple sclerosis: a randomised phase II trial. J Neurol Neurosurg Psychiatry. 2014; 85 (11): 1198-1208; and Vaclavkova A. et al., Oral ponesimod in patients with chronic plaque psoriasis: a randomised, double-blind, placebo-controlled phase 2 trial. Lancet. 2014; 384 (9959): 2036-2045) and consisted of an o.d. oral administration of ponesimod at a dose of 10 mg for 7 days (i.e., from Day 2 to Day 8) and 20 mg on Day 9. From Day 10 to Day 15 subjects received o.d. the matching placebo. In the placebo group (1:1 sex ratio), subjects received placebo from Day 1 to Day 15. All treatments were administered at the same time in the morning (fasted condition) with approximately 240 mL of water.
# Safety and tolerability were evaluated by monitoring adverse events (AEs), vital signs measurements (supine blood pressure), pulmonary function tests (PFTs; i.e., FEV1 and FVC), clinical laboratory, physical, and neurological examinations. Recording of blood pressure was performed at the same time-points as 12-lead ECG.
smiles,measurement,setting,value
"CCC/N=C1\S/C(=C\c2ccc(OC[C@H](O)CO)c(Cl)c2)C(=O)N1c1ccccc1C [ponesimod, (R)-5-[3-chloro-4-(2,3-dihydroxy-propoxy)-benz[Z]ylidene]-2-([Z]-propylimino)-3-o-tolyl-thiazolidin-4-one]",concentration at 3 h,"[1]; human, plasma, oral, 20 mg, regimen A, Day 15, read-out: plasma concentration 3 h after 20 mg of ponesimod",144 ± 36.9 ng/mL
same,plasma concentration 3 h after 20 mg of ponesimod,"[1]; regimen B, Day 9",144.0 ± 41.9 ng/mL
same,10 mg steady-state conditions attained,"[1]; regimen B, visual inspection",Day 6
same,decrease in DBP,healthy subjects; regimen A,−7±5.3 mmHg
same,decrease in SBP,healthy subjects; regimen A,−4±4.4 mmHg
same,decrease in DBP,healthy subjects; regimen B,−10±4.4 mmHg
same,decrease in SBP,healthy subjects; regimen B,−5±7.7 mmHg
